Experimental data taken from ChEMBL document CHEMBL5214999, “Identification and Optimization of a Ligand-Efficient Benzoazepinone Bromodomain and Extra Terminal (BET) Family Acetyl-Lysine Mimetic into the Oral Candidate Quality Molecule I-BET432” (J Med Chem, 2022).
Values after ≈ are worked out from the molar mass of the structure shown.

Assays:
[1] = target: T1, Bromodomain-containing protein 4 (Homo sapiens, UniProt O60885); assay: Inhibition of BRD4 BD2 (unknown origin) measured by TR-FRET assay
[2] = target: T1, Bromodomain-containing protein 4; assay: Inhibition of BRD4 BD1 (unknown origin) measured by TR-FRET assay
[3] = Lipophilicity, logD of compound at pH 7.4 by Chromatography; type: physicochemical; details: buffer
[4] = Artificial membrane permeability of the compound; type: ADME; details: PAMPA; read-out: permeability
[5] = target: C-C motif chemokine 2 (Homo sapiens, UniProt P13500); assay: Inhibition of MCP-1 in LPS-stimulated human whole blood incubate for 24 hrs by immuno assay; type: tissue-based
[6] = Solubility of the compound in saline by CLND method; type: physicochemical
[7] = Intrinsic clearance in human hepatocytes measured after 120 mins by LC-MS/MS analysis; type: ADME, cell-based, Hepatocyte; details: 2 h
[8] = Intrinsic clearance in dog hepatocytes incubated upto 45 mins by LC-MS/MS analysis; type: ADME, cell-based, Canis lupus familiaris, Hepatocyte; details: 0.75 h
[9] = Intrinsic clearance in rat hepatocytes after 60 mins by LC-MS/MS analysis; type: ADME, cell-based, Hepatocyte; details: 1 h

Chain of C-C motif chemokine 2 (P13500 whole entry): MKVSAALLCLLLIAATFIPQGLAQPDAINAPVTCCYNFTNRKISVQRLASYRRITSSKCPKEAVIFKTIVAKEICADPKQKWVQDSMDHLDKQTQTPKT

SMILES | IC50 [1] [nM] | IC50 [2] [nM] | chromatographic logD [3] | Papp [4] [×10⁻⁶ cm/s] | IC50 [5] [nM] | solubility kinetic [6] [µg/mL] | CLH [7] [mL/min/g] | CLH [8] [mL/min/g] | CLH [9] [mL/min/g]
Cc1noc(C)c1-c1ccccc1 | 158000 | 50100 |  |  |  |  |  |  | 
COc1cc2c(cc1OC)[C@@H](C)C(=O)N(C)CC2 | 15800 | 3980 | 2.6 |  |  |  |  |  | 
C[C@H]1C(=O)N(C)C=C(c2cnn(C)c2)c2cc(C(CO)CO)ccc21 | 100 | 31.6 | 1.4 | < 0.3 | 31.6 | ≥ 208 |  |  | 
CCS(=O)(=O)c1ccc2c(c1)C(C(N)=O)=CN(C)C(=O)[C@@H]2C | 3160 | 1580 | 1.1 | 1 | 2000 | 82 (≈ 254 µM) |  |  | 
COc1cc2c(cc1OC)[C@H](C)C(=O)N(C)CC2 | 158000 | 63100 | 2.5 |  |  |  |  |  | 
CCS(=O)(=O)c1ccc2c(c1)C(C)=CN(C)C(=O)[C@@H]2C | 251 | 79.4 | 3.4 | 15 | 158 | ≥ 131 | < 0.45 | 0.77 | 1.18
COc1cc2c(cc1OC)[C@H](C)C(=O)N(C)C=C2 | 50100 | 12600 | 3.4 |  |  |  |  |  | 
CCS(=O)(=O)c1ccc2c(c1)C(c1cnn(C)c1)=CN(C)C(=O)[C@@H]2C | 79.4 | 39.8 | 2.8 | 14.5 | 39.8 | ≥ 222 | < 0.45 | < 0.65 | 2.44

The remaining lines, values ahead:

IC50 [1] [nM] | IC50 [2] [nM] | chromatographic logD [3] | Papp [4] [×10⁻⁶ cm/s] | IC50 [5] [nM] | solubility kinetic [6] [µg/mL] | CLH [7] [mL/min/g] | CLH [8] [mL/min/g] | CLH [9] [mL/min/g] | SMILES
1000 | 501 | 5 | 70 | 3160 | ≥ 120 |  |  |  | CCOc1ccc2c(c1)C=CN(C)C(=O)C2C (racemic)
794 | 316 | 4 | 84 | 1000 | ≥ 128 |  |  |  | COCCOc1ccc2c(c1)C=CN(C)C(=O)[C@@H]2C
25100 | 39800 | 4.3 | 58 |  | ≥ 65 |  |  |  | CCOc1ccc2c(c1)C(n1ccnc1)=CN(C)C(=O)C2C (racemic)
1580 | 631 | 4.3 | 88 |  |  |  |  |  | COc1ccc2c(c1)C=CN(C)C(=O)[C@@H]2C
2000 | 398 | 1.1 | 2.7 | 1000 | ≥ 101 |  |  |  | C[C@H]1C(=O)N(C)C=Cc2cc(C(O)CO)ccc21 (stereo partly specified)
631 | 158 | 3.3 | 77.5 | 398 | ≥ 142 | < 0.45 | 3.37 | 23.76 | C[C@H]1C(=O)N(C)C=Cc2cc(CN3CCOCC3)ccc21
794 | 251 | 3.6 | 74 | 631 | ≥ 131 |  |  |  | CC1C(=O)N(C)C=Cc2cc(OCC(C)(C)O)ccc21 (racemic)
7940 | 501 | 1.5 | 36 | 1580 | ≥ 97 |  |  |  | C[C@H]1C(=O)N(C)C=Cc2cc(CN3CCCC3)ccc21
20 | 31.6 | 3.8 | 54 | 126 | ≥ 99 |  |  |  | CCOc1ccc2c(c1)C(c1cc[nH]n1)=CN(C)C(=O)C2C (racemic)
631 | 200 | 5.9 | 73 |  |  |  |  |  | CCc1ccc2c(c1)C=CN(C)C(=O)[C@@H]2C
20 | 12.6 | 3.1 | 40 | 15.8 | ≥ 135 |  |  |  | CCOc1ccc2c(c1)C(c1c[nH]c(C)n1)=CN(C)C(=O)[C@@H]2C
1580 | 398 | 2.6 | 24 | 1000 | ≥ 108 |  |  |  | C[C@H]1C(=O)N(C)C=Cc2cc(CCO)ccc21
